Like-named read-outs stand apart in the source and are kept apart here.
Experiments:
Assay in all cases: Kinase activity test (ReactionBiology), % enzyme activity relative to DMSO
Assay type in all cases: biochemical
NEK2 = target: T1, NEK2 (Homo sapiens, UniProt P51955); settings: NEK2;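 note: FDA-approved drugs chosen by structure-based repositioning, each screened at 10 or 1 µM for kinase activity, expressed as percent of DMSO controls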
T1 construct: purchased ReactionBiology
T1 sequence (P51955 1-445): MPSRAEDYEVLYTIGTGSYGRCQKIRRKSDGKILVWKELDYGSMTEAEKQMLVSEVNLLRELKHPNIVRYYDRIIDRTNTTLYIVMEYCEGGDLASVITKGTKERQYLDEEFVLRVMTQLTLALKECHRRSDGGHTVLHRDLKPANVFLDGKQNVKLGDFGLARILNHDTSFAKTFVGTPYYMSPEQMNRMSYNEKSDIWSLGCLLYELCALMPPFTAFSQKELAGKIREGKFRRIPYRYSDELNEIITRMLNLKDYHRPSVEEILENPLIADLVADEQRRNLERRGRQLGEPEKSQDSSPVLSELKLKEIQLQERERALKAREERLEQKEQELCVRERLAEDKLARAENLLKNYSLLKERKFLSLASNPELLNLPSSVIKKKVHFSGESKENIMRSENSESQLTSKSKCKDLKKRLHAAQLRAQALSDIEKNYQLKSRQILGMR

VEGFR2 = VEGFR2 (Homo sapiens, UniProt P35968); design: purchased ReactionBiology; settings: VEGFR2;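 note: VEGFR2 was one member of a ten-kinase screening panel testing marketed FDA-approved drugs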
MST-4 = target: T2, MST-4 (Homo sapiens, UniProt Q9P289); settings: MST4; for % Enzyme Activity (relative to DMSO controls), Data 1: replicate Data 1; for % Enzyme Activity (relative to DMSO controls), Data 2: replicate Data 2;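 for all read-outs here: marketed FDA-approved drugs screened at 10 µM and 1 µM against a ten-kinase panel, remaining activity given as percent of DMSO controls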
T2 construct: purchased ReactionBiology

DAPK1 = target: T3, DAPK1 (Homo sapiens, UniProt P53355); settings: DAPK1; for % Enzyme Activity (relative to DMSO controls), Data 1: replicate Data 1; for % Enzyme Activity (relative to DMSO controls), Data 2: replicate Data 2
T3 construct: purchased ReactionBiology

CDC7 = target: T4, CDC7 (Homo sapiens, UniProt O00311); settings: CDC7; for % Enzyme Activity (relative to DMSO controls), Data 1: replicate Data 1; for % Enzyme Activity (relative to DMSO controls), Data 2: replicate Data 2;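 for all read-outs here: each drug screened at both 10 µM and 1 µM across a ten-kinase panel, activity expressed as percent of DMSO control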
T4 construct: purchased ReactionBiology

EPHB4 = target: T5, EPHB4 (Homo sapiens, UniProt P54760); settings: EPHB4; for % Enzyme Activity (relative to DMSO controls), Data 1: replicate Data 1; for % Enzyme Activity (relative to DMSO controls), Data 2: replicate Data 2;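 for all read-outs here: EPHB4 was one of ten selected kinases in the screening panel, with enzyme activity expressed as a percentage of DMSO controls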
T5 construct: purchased ReactionBiology
T5 sequence (P54760 16-987): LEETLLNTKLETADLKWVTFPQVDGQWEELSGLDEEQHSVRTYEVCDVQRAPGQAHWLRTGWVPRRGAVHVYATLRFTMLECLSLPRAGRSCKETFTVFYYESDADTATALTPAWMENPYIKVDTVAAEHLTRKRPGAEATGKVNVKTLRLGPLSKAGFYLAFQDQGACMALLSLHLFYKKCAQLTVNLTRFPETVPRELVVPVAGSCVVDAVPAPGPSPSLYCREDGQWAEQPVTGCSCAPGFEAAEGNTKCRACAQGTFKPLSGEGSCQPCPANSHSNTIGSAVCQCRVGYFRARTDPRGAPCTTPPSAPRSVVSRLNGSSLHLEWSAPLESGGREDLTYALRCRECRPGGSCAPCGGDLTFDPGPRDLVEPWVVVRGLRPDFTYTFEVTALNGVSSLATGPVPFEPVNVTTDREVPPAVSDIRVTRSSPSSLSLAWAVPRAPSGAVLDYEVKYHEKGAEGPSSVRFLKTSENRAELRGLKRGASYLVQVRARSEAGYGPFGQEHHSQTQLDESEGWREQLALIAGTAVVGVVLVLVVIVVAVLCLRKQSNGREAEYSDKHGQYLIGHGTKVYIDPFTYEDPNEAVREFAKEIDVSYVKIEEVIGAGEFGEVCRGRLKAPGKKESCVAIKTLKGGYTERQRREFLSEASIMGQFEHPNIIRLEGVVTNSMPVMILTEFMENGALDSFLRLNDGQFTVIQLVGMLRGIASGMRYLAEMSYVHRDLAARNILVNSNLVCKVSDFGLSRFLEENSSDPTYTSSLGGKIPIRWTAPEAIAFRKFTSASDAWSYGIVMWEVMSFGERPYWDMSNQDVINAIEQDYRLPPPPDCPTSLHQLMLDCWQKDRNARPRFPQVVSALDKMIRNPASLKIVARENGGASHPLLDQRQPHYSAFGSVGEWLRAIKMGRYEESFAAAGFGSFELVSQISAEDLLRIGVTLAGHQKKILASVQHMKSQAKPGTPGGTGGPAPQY

MAP2K2 = target: T6, MAP2K2 (Homo sapiens, UniProt P36507); settings: MEK2
T6 construct: purchased ReactionBiology

CK1d = target: T7, CK1d (Homo sapiens, UniProt P48730); settings: CK1d; 1 uM; replicate Data 1
T7 construct: purchased ReactionBiology

[1] = 1 uM, Average, read-out: % Enzyme Activity (relative to DMSO controls), Average
[2] = 1 uM, replicate Data 1, read-out: % Enzyme Activity (relative to DMSO controls), Data 1
[3] = 1 uM, replicate Data 2, read-out: % Enzyme Activity (relative to DMSO controls), Data 2
[4] = 10 uM, Average, read-out: % Enzyme Activity (relative to DMSO controls), Average
[5] = 10 uM, replicate Data 1, read-out: % Enzyme Activity (relative to DMSO controls), Data 1
[6] = 10 uM, replicate Data 2, read-out: % Enzyme Activity (relative to DMSO controls), Data 2

T3 sequence (P53355 whole entry): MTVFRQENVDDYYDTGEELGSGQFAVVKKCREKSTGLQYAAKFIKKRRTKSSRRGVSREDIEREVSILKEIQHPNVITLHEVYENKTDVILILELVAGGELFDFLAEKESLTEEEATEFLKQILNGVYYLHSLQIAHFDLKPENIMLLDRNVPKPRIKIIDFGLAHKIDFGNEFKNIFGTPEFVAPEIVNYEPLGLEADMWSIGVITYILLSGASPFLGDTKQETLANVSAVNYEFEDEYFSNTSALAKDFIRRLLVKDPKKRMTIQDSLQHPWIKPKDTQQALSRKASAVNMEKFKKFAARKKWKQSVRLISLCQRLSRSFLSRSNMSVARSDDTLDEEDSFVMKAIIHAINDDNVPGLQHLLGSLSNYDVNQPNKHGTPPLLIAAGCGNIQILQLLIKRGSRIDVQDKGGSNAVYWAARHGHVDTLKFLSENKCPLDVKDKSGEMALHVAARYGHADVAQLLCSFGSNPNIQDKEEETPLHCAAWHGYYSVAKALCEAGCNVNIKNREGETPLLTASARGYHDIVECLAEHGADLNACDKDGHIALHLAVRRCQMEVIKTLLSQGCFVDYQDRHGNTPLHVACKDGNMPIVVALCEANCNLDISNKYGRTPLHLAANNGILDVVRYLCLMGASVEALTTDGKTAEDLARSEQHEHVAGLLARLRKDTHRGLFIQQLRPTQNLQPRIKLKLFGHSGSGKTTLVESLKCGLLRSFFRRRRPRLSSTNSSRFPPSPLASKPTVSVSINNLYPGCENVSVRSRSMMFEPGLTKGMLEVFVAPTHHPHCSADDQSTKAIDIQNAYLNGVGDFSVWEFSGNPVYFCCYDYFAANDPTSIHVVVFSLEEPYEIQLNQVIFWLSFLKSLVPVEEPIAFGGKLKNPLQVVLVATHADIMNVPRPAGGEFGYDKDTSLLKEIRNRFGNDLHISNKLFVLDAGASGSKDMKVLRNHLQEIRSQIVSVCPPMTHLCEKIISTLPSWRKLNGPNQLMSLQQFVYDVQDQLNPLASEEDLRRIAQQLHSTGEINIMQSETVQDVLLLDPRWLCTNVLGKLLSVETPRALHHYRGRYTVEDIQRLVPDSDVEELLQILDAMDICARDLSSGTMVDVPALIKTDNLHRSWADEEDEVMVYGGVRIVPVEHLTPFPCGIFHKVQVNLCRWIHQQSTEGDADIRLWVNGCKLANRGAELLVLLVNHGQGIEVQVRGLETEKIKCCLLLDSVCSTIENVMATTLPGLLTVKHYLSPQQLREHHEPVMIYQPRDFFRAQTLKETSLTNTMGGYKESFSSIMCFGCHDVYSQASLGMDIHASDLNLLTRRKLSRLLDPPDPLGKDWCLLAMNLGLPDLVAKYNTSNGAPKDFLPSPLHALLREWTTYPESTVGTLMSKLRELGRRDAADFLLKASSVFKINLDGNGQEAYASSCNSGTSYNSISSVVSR
T6 sequence (P36507 whole entry): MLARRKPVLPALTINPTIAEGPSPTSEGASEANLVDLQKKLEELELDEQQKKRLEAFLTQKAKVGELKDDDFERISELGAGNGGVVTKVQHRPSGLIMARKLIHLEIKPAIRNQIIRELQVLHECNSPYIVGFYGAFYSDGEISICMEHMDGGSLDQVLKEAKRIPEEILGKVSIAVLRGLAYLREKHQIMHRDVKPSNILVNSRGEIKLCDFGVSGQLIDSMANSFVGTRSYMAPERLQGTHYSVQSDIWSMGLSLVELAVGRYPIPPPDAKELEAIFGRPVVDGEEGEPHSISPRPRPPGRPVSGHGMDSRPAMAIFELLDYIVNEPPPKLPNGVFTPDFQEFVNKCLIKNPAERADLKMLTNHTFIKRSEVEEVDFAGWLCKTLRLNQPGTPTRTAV
T2 sequence (Q9P289 whole entry): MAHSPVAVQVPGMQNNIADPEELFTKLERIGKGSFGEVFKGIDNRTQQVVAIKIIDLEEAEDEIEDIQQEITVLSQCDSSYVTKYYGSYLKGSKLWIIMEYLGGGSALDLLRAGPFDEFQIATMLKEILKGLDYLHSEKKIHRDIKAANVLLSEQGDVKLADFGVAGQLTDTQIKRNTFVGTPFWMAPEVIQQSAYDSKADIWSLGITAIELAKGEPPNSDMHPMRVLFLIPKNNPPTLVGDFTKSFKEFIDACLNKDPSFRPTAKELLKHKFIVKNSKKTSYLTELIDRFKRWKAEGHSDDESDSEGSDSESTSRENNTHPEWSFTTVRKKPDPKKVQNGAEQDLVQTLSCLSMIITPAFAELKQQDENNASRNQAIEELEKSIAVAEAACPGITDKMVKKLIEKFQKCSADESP
Chain of VEGFR2 (P35968 20-1356): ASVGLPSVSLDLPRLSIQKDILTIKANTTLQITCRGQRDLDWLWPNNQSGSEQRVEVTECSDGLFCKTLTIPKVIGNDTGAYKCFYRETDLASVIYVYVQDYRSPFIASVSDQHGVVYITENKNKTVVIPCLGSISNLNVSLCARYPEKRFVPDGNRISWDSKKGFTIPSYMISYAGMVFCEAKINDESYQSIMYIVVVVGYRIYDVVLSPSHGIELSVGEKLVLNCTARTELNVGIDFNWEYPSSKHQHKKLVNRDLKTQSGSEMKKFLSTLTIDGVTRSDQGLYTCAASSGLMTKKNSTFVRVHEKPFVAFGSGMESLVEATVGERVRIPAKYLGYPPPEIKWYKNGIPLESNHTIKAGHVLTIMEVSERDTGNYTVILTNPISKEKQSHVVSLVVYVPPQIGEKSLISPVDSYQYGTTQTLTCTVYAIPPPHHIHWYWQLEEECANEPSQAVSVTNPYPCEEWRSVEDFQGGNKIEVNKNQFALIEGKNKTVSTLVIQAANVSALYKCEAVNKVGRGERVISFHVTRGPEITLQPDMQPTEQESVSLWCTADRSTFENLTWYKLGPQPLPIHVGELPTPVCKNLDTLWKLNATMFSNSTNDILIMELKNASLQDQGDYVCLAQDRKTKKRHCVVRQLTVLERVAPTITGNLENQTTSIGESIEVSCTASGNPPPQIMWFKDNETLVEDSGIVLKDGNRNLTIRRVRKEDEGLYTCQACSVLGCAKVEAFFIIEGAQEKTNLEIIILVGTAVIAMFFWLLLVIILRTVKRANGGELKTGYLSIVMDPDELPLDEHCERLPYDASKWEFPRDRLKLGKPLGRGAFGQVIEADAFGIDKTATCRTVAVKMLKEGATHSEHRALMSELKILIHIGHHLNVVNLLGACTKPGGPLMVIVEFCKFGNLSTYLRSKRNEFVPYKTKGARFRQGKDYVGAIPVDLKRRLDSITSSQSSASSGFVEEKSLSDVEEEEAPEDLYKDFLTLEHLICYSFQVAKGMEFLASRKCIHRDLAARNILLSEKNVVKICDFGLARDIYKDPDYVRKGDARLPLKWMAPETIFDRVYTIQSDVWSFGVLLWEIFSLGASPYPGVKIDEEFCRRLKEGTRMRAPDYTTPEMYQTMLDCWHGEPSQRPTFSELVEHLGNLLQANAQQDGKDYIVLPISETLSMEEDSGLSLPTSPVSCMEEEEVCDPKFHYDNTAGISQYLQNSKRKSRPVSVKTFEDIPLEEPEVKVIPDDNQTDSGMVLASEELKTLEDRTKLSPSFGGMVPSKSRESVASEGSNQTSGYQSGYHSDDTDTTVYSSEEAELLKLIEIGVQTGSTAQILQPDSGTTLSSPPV
T4 sequence (O00311 whole entry): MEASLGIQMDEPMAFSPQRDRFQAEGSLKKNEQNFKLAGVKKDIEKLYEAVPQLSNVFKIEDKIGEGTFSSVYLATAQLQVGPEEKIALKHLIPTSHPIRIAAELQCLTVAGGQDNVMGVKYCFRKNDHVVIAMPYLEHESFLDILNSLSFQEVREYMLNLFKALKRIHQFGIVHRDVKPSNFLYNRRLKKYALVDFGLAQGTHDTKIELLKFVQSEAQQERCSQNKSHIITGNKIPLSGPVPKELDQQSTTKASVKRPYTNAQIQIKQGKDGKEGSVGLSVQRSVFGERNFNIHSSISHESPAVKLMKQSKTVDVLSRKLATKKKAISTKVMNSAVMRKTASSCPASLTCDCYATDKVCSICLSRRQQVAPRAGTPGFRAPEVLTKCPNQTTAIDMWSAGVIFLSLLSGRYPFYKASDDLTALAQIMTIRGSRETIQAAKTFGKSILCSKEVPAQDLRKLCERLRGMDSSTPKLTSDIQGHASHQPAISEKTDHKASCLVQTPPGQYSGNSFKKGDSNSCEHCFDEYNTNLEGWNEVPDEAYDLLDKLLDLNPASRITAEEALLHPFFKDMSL
T4 sequence (Q9UBU7 whole entry partner): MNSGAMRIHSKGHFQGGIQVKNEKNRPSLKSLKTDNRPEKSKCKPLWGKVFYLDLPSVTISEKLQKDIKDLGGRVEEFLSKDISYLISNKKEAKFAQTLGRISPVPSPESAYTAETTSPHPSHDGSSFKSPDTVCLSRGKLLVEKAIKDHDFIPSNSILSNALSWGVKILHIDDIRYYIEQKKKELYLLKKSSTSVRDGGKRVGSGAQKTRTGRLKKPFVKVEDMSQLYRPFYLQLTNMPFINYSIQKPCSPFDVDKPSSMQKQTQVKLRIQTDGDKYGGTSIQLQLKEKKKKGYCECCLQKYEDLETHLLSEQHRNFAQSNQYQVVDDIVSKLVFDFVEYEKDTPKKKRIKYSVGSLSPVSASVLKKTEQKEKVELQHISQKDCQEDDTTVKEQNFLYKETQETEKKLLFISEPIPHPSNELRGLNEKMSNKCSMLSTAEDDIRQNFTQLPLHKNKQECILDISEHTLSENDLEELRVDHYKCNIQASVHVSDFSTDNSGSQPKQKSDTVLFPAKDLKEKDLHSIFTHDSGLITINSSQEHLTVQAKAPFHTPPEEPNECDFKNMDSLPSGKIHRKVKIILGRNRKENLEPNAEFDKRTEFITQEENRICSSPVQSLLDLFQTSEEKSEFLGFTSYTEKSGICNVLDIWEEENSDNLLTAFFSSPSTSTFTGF

Compound | % Enzyme Activity (relative to DMSO controls), Average (VEGFR2; 1 uM, Average) [%] | % Enzyme Activity (relative to DMSO controls), Data 1 (VEGFR2; 1 uM, replicate Data 1) [%] | % Enzyme Activity (relative to DMSO controls), Data 2 (VEGFR2; 1 uM, replicate Data 2) [%] | % Enzyme Activity (relative to DMSO controls), Average (VEGFR2; 10 uM, Average) [%] | % Enzyme Activity (relative to DMSO controls), Data 1 (VEGFR2; 10 uM, replicate Data 1) [%] | % Enzyme Activity (relative to DMSO controls), Data 2 (VEGFR2; 10 uM, replicate Data 2) [%] | % Enzyme Activity (relative to DMSO controls), Average (DAPK1; 1 uM) [%] | % Enzyme Activity (relative to DMSO controls), Data 1 (DAPK1; 1 uM) [%] | % Enzyme Activity (relative to DMSO controls), Data 2 (DAPK1; 1 uM) [%] | % Enzyme Activity (relative to DMSO controls), Average (DAPK1; 10 uM) [%] | % Enzyme Activity (relative to DMSO controls), Data 1 (DAPK1; 10 uM) [%] | % Enzyme Activity (relative to DMSO controls), Data 2 (DAPK1; 10 uM) [%] | % Enzyme Activity (relative to DMSO controls), Average (CDC7; 1 uM) [%] | % Enzyme Activity (relative to DMSO controls), Data 1 (CDC7; 1 uM) [%] | % Enzyme Activity (relative to DMSO controls), Data 2 (CDC7; 1 uM) [%] | % Enzyme Activity (relative to DMSO controls), Average (CDC7; 10 uM) [%] | % Enzyme Activity (relative to DMSO controls), Data 1 (CDC7; 10 uM) [%] | % Enzyme Activity (relative to DMSO controls), Data 2 (CDC7; 10 uM) [%] | % Enzyme Activity (relative to DMSO controls), Data 1 (EPHB4; 1 uM) [%] | % Enzyme Activity (relative to DMSO controls), Data 1 (EPHB4; 10 uM) [%] | also measured
C[C@H](O)[C@H](O)[C@H]1CNc2nc(N)[nH]c(=O)c2N1 [Sapropterin] | 98.99 | 101.37 | 96.61 | 98.14 | 98.48 | 97.79 | – | – | – | – | – | – | – | – | – | – | – | – | – | – | % Enzyme Activity (relative to DMSO controls), Average (NEK2; 1 uM, Average): 93.31%; % Enzyme Activity (relative to DMSO controls), Data 1 (NEK2; 1 uM, replicate Data 1): 92.46%; % Enzyme Activity (relative to DMSO controls), Data 2 (NEK2; 1 uM, replicate Data 2): 94.15%; % Enzyme Activity (relative to DMSO controls), Average (NEK2; 10 uM, Average): 93.52%; % Enzyme Activity (relative to DMSO controls), Data 1 (NEK2; 10 uM, replicate Data 1): 92.39%; % Enzyme Activity (relative to DMSO controls), Data 2 (NEK2; 10 uM, replicate Data 2): 94.64%; % Enzyme Activity (relative to DMSO controls), Average (MST-4; 1 uM): 87.71%; % Enzyme Activity (relative to DMSO controls), Data 1 (MST-4; 1 uM): 88.88%; % Enzyme Activity (relative to DMSO controls), Data 2 (MST-4; 1 uM): 86.54%; % Enzyme Activity (relative to DMSO controls), Average (MST-4; 10 uM): 87.19%; % Enzyme Activity (relative to DMSO controls), Data 1 (MST-4; 10 uM): 96.6%; % Enzyme Activity (relative to DMSO controls), Data 2 (MST-4; 10 uM): 77.78%
C[C@]12CCC(=O)C=C1CC[C@@H]1[C@@H]2[C@@H](O)C[C@@]2(C)[C@H]1CC[C@]2(O)C(=O)CO [Hydrocortisone] | 99.23 | 98.18 | 100.27 | 102.28 | 99.63 | 104.92 | 114.18 | 116.14 | 112.22 | 104.62 | 110.58 | 98.66 | 74.38 | 77.32 | 71.43 | 75.76 | 77.92 | 73.60 | 105.83 | 91.79 | % Enzyme Activity (relative to DMSO controls), Average (EPHB4; 1 uM): 102.86%; % Enzyme Activity (relative to DMSO controls), Data 2 (EPHB4; 1 uM): 99.88%; % Enzyme Activity (relative to DMSO controls), Average (EPHB4; 10 uM): 91.65%; % Enzyme Activity (relative to DMSO controls), Data 2 (EPHB4; 10 uM): 91.51%
CC(C)C[C@H](NC(=O)[C@H](Cc1ccccc1)NC(=O)c1cnccn1)B(O)O [Bortezomib] | – | – | – | – | – | – | 99.82 | 95.51 | 104.12 | 92.04 | 94.13 | 89.94 | 74.98 | 77.59 | 72.36 | 84.55 | 84.43 | 84.67 | – | – | –
N[C@@H](CC(=O)N1CCn2c(nnc2C(F)(F)F)C1)Cc1cc(F)c(F)cc1F [Sitagliptin] | – | – | – | – | – | – | – | – | – | – | – | – | – | – | – | – | – | – | – | – | remaining activity at 1 µM (NEK2; [1]): 92.4%; remaining activity at 1 µM (NEK2; [2]): 89.3%; remaining activity at 1 µM (NEK2; [3]): 95.5%; remaining activity at 10 µM (NEK2; [4]): 86.5%; remaining activity at 10 µM (NEK2; [5]): 82.7%; remaining activity at 10 µM (NEK2; [6]): 90.3%; remaining activity at 1 µM (VEGFR2; [1]): 97.9%; remaining activity at 1 µM (VEGFR2; [2]): 100%; remaining activity at 1 µM (VEGFR2; [3]): 95.6%; remaining activity at 10 µM (VEGFR2; [4]): 99.7%; remaining activity at 10 µM (VEGFR2; [5]): 99.4%; remaining activity at 10 µM (VEGFR2; [6]): 100%; remaining activity at 1 µM (MAP2K2; [1]): 100%; remaining activity at 1 µM (MAP2K2; [2]): 101%; remaining activity at 1 µM (MAP2K2; [3]): 99.3%; remaining activity at 10 µM (MAP2K2; [4]): 94.3%; remaining activity at 10 µM (MAP2K2; [5]): 96.2%; remaining activity at 10 µM (MAP2K2; [6]): 92.4%
CC(=O)Nc1ccc(O)cc1 [Acetaminophen] | – | – | – | – | – | – | – | 112.11 | – | – | 98.16 | – | – | 78.79 | – | – | 85.04 | – | 95.30 | 99.39 | % Enzyme Activity (relative to DMSO controls), Data 1 (CK1d): 106.63%
CN(C)CCCN1c2ccccc2Sc2ccc(Cl)cc21 [Chlorpromazine] | 105.46 | 101.88 | 109.04 | 105.67 | 105.24 | 106.1 | – | – | – | – | – | – | – | – | – | – | – | – | – | – | % Enzyme Activity (relative to DMSO controls), Average (MAP2K2; 1 uM, Average): 103.60%; % Enzyme Activity (relative to DMSO controls), Data 1 (MAP2K2; 1 uM, replicate Data 1): 103.14%; % Enzyme Activity (relative to DMSO controls), Data 2 (MAP2K2; 1 uM, replicate Data 2): 104.05%; % Enzyme Activity (relative to DMSO controls), Average (MAP2K2; 10 uM, Average): 101.38%; % Enzyme Activity (relative to DMSO controls), Data 1 (MAP2K2; 10 uM, replicate Data 1): 102.43%; % Enzyme Activity (relative to DMSO controls), Data 2 (MAP2K2; 10 uM, replicate Data 2): 100.33%
